Here are results for nine compounds from patent publication EP1214933A1, “METHOD FOR MODULATING THE METABOLISM OF NITROGEN OXIDES, COMPOSITIONS THEREFOR (AND VARIANTS) AND METHOD FOR ACTING ON A PATIENT'S ORGANISM NECESSITATING THE METABOLISM OF NITROGEN OXIDES TO BE CORRECTED” (Institut Molekulyarnoi Genetiki Rossiiskoi Akademii Nauk ( …, priority 1999, dated 2001).

For one assay, the system named is NO oxidation in blood. Kind of assay: In vivo micellar NO oxidation catalysis: arterial pressure and plasma nitrite/nitrate. Further details: species or system male rats of Wistar normotensive line. To be noted: for nitrate increased by / nitrite level increased by: plasma, following NaNO2 injection. As for the experimental part: The experiment was performed on male rats of Wistar normotensive line weighing 180-400 grams. Polyethylene catheters were implanted to animals under Ketamine anesthesia (5mg/100g intraperitoneally) 24 hours prior to the experiment. The femoral artery was catheterized for connecting to arterial blood pressure (AP) transducer and the femoral vein was catheterized for intravenous administering medicinal preparations. AP and heart rate (HR) were measured in the abdominal aorta using a pressure transducer connected to a computer through an amplifier and a digital converter. The animals were divided into groups each consisting of a control and a test subgroups. […] Monitoring AP and HR was continued for 1.5 hours after administering the solutions. Following recording initial AP level group one (group L-NAME) was intraperitonelly administered an inhibitor of NO-synthases N^ω-nitro-L-arginine methyl ester (50 mg/kg) and in 1.5 hours when AP stabilized at a steady level NaNO2 (1 mg/kg) was administered. After a steady lowering AP the animals were administered Perftoran or KH. Group two of rats (group FC) was administered Perftoran or KH immediately after recording initial AP level. Group three (group FCTh) was first administered 200 mg/kg α-lipoic acid and in 15 minutes it was administered Perftoran (or KH). Before commencement of each experiment, after AP got stabilized at a steady level while administering L-NAME and NaNO2 and also immediately following completion of monitoring 0.2 ml blood were taken in each experiment from the arterial catheter for analysis.

Assay [1] is described as follows: Efficacy of renitrosation catalysts by N1-nitrozotriptophan denitrosation kinetics. The format is biochemical. The note with it: 32°C, normalized for the buffer molarity. As for the experimental part: The efficacy of renitrosation catalysts was determined by N^1-nitrozotriptophan (NOW) denitrosation kinetics in the composition of an acylic derivative or serum albumin at 32°C and at different pH values by absorption decrease at λ = 340 nm or by differential spectroscopy relative to denitrosation reaction in a buffer solution, in relation to nitrite/nitrate ratio or by the ratio analysis of nitrosation products. Examples 7-17 illustrate catalytic and inhibitory activity of W^0/W^0buffer compounds used in the claimed compositions (normalized for the buffer molarity).

[2] abbreviates: group L-NAME, experimental animals.
The mark [3] stands for this setting: reference buffer Phosphate, pH 6.3.

On to `O=N[O-].[Na+]` [NaNO2], for which the “lowering MAP by” value in the assay with NO oxidation in blood (group L-NAME, both subgroups, NaNO2 1 mg/kg after L-NAME) is recorded as 25±4 mm Hg. Moreover, in the assay with NO oxidation in blood (group L-NAME, controls), the “nitrate increased by” value was determined as 76 ± 26 µM and the “nitrite level increased by” value was 362 ± 73 µM. Besides, in the assay on NO oxidation in blood (setting [2]), the “nitrate increased by” value stood at 87 ± 15 µM and the “nitrite level increased by” value amounted to 344 ± 68 µM. Take `NC(N)=NCCCC(N)C(=O)O` [Example 13, D-Arg]: the “W^0/W^0 buffer” value in assay [1] (reference buffer MOPS, pH 6) turned out to be 0.56.

Consider `O=C1O[C@H]([C@@H](O)CO)C(O)=C1O` [Example 17, Ascorbic acid], for which, in assay [1] (reference buffer Phosphate, pH 5.9), the “W^0/W^0 buffer” value is on record as 32. Consider Na2MnATP [Example 8], for which, in assay [1] (setting [3]), the “W^0/W^0 buffer” value is recorded as 0.7. In the case of `COC(=O)[C@@H](N)CCCNC(=N)N[N+](=O)[O-]` [L-NAME, N^ω-nitro-L-arginine methyl ester], in the assay on NO oxidation in blood (group L-NAME, after NOS inhibitor administration), the “Plasma levels of nitrites and nitrates” value is “insignificant lowering”. Also, the “mean arterial blood pressure (MAP) raised by” value in the assay with NO oxidation in blood (group L-NAME, both subgroups, following L-NAME 50 mg/kg intraperitoneally) is given as 38±5 mm Hg. As to `O=C(O)CCCCC1CCSS1` (stereo not drawn) [α-lipoic acid], the MAP change result in the assay with NO oxidation in blood (FCTh group, both subgroups, α-lipoic acid 200 mg/kg) is recorded as “insignificant lowering MAP”. `O=P([O-])([O-])OP(=O)([O-])OP(=O)([O-])[O-].[Mn+2].[Na+].[Na+].[Na+]` [Example 9, Na3MnP3O10]: the “W^0/W^0 buffer” value in assay [1] (setting [3]) came out at 21. Turning to `O=P([O-])([O-])OP(=O)([O-])OP(=O)([O-])[O-].[Mg+2].[Na+].[Na+].[Na+]` [Example 10, Na3MgP3O10], the “W^0/W^0 buffer” value in assay [1] (setting [3]) was determined as 11. Turning to `O=P([O-])([O-])OP(=O)([O-])OP(=O)([O-])[O-].[Na+].[Na+].[Na+].[Na+].[Na+]` [Example 7, Na5P3O10], the “W^0/W^0 buffer” value in assay [1] (setting [3]) amounted to 4.
